The term MIC denotes the least concentration at which growth counts as inhibited. What is called MBC is the smallest concentration meeting the test's criterion for killing.

Values after ≈ are worked out from the molar mass of the structure shown.

Experimental findings from ChEMBL document CHEMBL6120994, “Unravelling the potential of natural chelating agents in the control of Staphylococcus aureus and Pseudomonas aeruginosa biofilms” (Eur J Med Chem, 2025) are described below.

A short description of assay [1]: Metal chelating activity assessed as compound-Fe(III) complex formation by measuring RhB degradation in MgO2/Fe(III) system measured within 30 mins by UV-Visible spectrophotometry.
For assay [2], the system named is Pseudomonas aeruginosa. Description: Antibacterial activity against Pseudomonas aeruginosa ATCC 10145 assessed as inhibition of bacterial growth incubated for 24 hrs by broth microdilution method. Format: functional. (In general: In broth dilution the organism is exposed to a series of concentrations in liquid medium.)
For assay [3], the system named is Staphylococcus aureus. Description: Bactericidal activity against Staphylococcus aureus CECT 976 assessed as bacterial killing incubated in MHB for 24 hrs and measured following culturing on agar plate for 24 hrs. Format: functional. The following applies: time 48 hrs.
Assay [4] concerns Pseudomonas aeruginosa. Description: Bactericidal activity against Pseudomonas aeruginosa ATCC 10145 assessed as bacterial killing incubated in MHB for 24 hrs and measured following culturing on agar plate for 24 hrs. The following applies: time 48 hrs. In kind it is functional.
Assay [5] concerns Staphylococcus aureus. Description: Antibacterial activity against Staphylococcus aureus CECT 976 assessed as inhibition of bacterial growth incubated for 24 hrs by broth microdilution method. In kind it is functional.

As to `O=C(O)C(=O)O`, in assay [1], the Activity is 48.9%. In the case of `O=C(O)CC(O)(CC(=O)O)C(=O)O`, in assay [1], the Activity stood at 42.3%. As for `O=C(O)CN(CCN(CC(=O)O)CC(=O)O)CC(=O)O`, the Activity in assay [1] was 25.8%. On the same count and under the same terms, next, `O=C(O)[C@@H](O)[C@H](O)C(=O)O`: 98.5%. With `O=C(O)c1cn(C2CC2)c2cc(N3CCNCC3)c(F)cc2c1=O` [CIPROFLOXACIN], in assay [2], the MIC stood at 32 µg/mL (≈ 96.6 µM). In addition, the figures for the MBC in assay [3] and in assay [4] were 8 µg/mL (≈ 24.1 µM) and 32 µg/mL (≈ 96.6 µM), respectively.

As to `NC[C@H]1O[C@H](O[C@H]2[C@H](O)[C@@H](O[C@H]3O[C@H](CO)[C@@H](O)[C@H](N)[C@H]3O)[C@H](N)C[C@@H]2N)[C@H](N)C[C@@H]1O` [TOBRAMYCIN], the MIC in assay [5] worked out at 4 µg/mL (≈ 8.56 µM); in assay [2], 8 µg/mL (≈ 17.1 µM). For the same compound, the values for the MBC in assay [3] and in assay [4] were 4 µg/mL (≈ 8.56 µM) and 16 µg/mL (≈ 34.2 µM), respectively.
